Reference: publication PMC10698726 (Molecular Pharmaceutics, 2023)

Experiments:
OCT1 = test system: OCT1; design: method as in PMID 34884800; conditions: cited from earlier work
OCT2 = test system: OCT2; design: method as in PMID 34884800; conditions: cited from earlier work
[1] = substrate: CCC(CO)NCCNC(CC)CO; test: cells, lysate or membranes named; conditions: other: OCT1, 2 min uptake, this study

Molecule | difference in the inhibition of OCT1 between enantiomers (OCT1) | difference in the inhibition of OCT2 between enantiomers (OCT2) | Km [1] [µM] | Vmax [1] [µmol/min/mg]
CCCC(C(=O)c1ccccc1)N1CCCC1 (stereo not drawn) [α-pyrrolidinovalerophenone] | twofold difference | no difference | – | –
OCT1 (Homo sapiens) (protein) MPTVDDILEQVGESGWFQKQAFLILCLLSAAFAPICVGIVFLGFTPDHHCQSPGVAELSQRCGWSPAEELNYTVPGLGPAGEAFLGQCRRYEVDWNQSALSCVDPLASLATNRSHLPLGPCQDGWVYDTPGSSIVTEFNLVCADSWKLDLFQSCLNAGFLFGSLGVGYFADRFGRKLCLLGTVLVNAVSGVLMAFSPNYMSMLLFRLLQGLVSKGNWMAGYTLITEFVGSGSRRTVAIMYQMAFTVGLVALTGLAYALPHWRWLQLAVSLPTFLFLLYYWCVPESPRWLLSQKRNTEAIKIMDHIAQKNGKLPPADLKMLSLEEDVTEKLSPSFADLFRTPRLRKRTFILMYLWFTDSVLYQGLILHMGATSGNLYLDFLYSALVEIPGAFIALITIDRVGRIYPMAMSNLLAGAACLVMIFISPDLHWLNIIIMCVGRMGITIAIQMICLVNAELYPTFVRNLGVMVCSSLCDIGGIITPFIVFRLREVWQALPLILFAVLGLLAAGVTLLLPETKGVALPETMKDAENLGRKAKPKENTIYLKVQTSEPSGT | – | – | 167 | 0.00235
